Earlier results on two molecules are cited in patent US12453819B2, “Injector” (Antares Pharma, Inc., priority 2018, dated 2025).

The structures appear in SMILES notation. Counter-ions that a name gives are not always drawn.

Turning to `C=CCN1CC[C@]23c4c5ccc(O)c4O[C@H]2C(=O)CC[C@@]3(O)[C@H]1C5` [Naloxone, 17-allyl-4,5α-epoxy, 3-14-dihydroxymorphine-6-one], the log P (in general, a log measure of how a compound divides between an organic and an aqueous phase) was 1.92.
Turning to `C=CCN1CC[C@]23c4c5ccc(O)c4O[C@H]2C(=O)CC[C@@]3(O)[C@H]1C5` [Naloxone hydrochloride], the “solubility in water: parts of water dissolving one part” value (as described in USP (soluble)) is listed as 10-30 parts of water. For the same molecule, for the setting “descriptive term”, the solubility in alcohol entry is on record as “slightly soluble”, the solubility in chloroform result is given as “practically insoluble”, the solubility in ether entry was “practically insoluble” and the solubility in water result is reported as “soluble”.
